We go through four compounds from patent publication US20210395250A1, “NOVEL CRYSTAL OF (3S)-3-[2-(6-AMINO-2-FLUOROPYRIDIN-3-YL)-4-FLUORO-1H-IMIDAZOL-5-YL]-7-[5-CHLORO-2-(1H-TETRAZOL-1-YL)PHENYL]-2,3-DIHYDROINDOLIZIN-5(1H)-ONE” (priority 2018, published 2021).

Data set [1] can be described thus: Evaluation of hygroscopicity: isothermal absorption curve measurement (DVS). Format: physicochemical. Here is the method:
Physical Chemical Example 1: Evaluation of Hygroscopicity
An isothermal absorption curve measurement (DVS) was carried out under the following conditions.
Device: DVS Intrinsic, manufactured by SMS
Measurement temperature: 25° C.
Measurement range: relative humidity of 0 to 95%
Interval of measurement: relative humidity of 5%

Data set [2] is described as follows: Evaluation of oral absorption after oral administration of suspensions to monkeys. The note with it: for oral absorption rate (%): cynomolgus monkeys/male, fasted, 1 mg/kg oral suspension in 0.5% aqueous methyl cellulose, oral AUC / intravenous AUC (1 mg/kg) x 100.
Procedure: The measurement of oral absorption was carried out under the following conditions.
Each of the suspensions was prepared with a 0.5% aqueous methyl cellulose solution at a concentration of 0.33 mg/mL (in terms of free base content). Each of the suspensions was administered to monkeys (cynomolgus monkeys/male), which had been fasted since the day before, in the stomach thereof forcibly with a sonde. The amount of administration was adjusted depending on the body weight of each of the monkeys so that the dosage amount became 1 mg/kg.
After the administration of the suspensions (liquid pharmaceuticals), at the timing of 0.25, 0.5, 1, 2, 4, 7 and 24 hours after the administration, blood (0.5 mL) was collected from the cephalic vein with a heparin-added syringe. The collected blood was centrifuged at 10000 G for 5 minutes to separate plasma from the blood. In the evaluation of the oral absorption of the test compounds, data obtained when the test compounds were administered intravenously at the same dose amounts (1 mg/kg) were employed. The oral absorption rate (%) was calculated by dividing an AUC (area under the blood concentration-time curve) value obtained in the oral administration by an AUC value obtained in the intravenous administration and then multiplying the resultant value by 100.
The whole volume of the solution was added to Oasis HLB μElution Plate through which acetonitrile (200 μL) and purified water (200 μL) had been passed, and was then sucked under reduced pressure. Purified water (200 μL) was added to the solution, and the resultant solution was washed by sucking under reduced pressure. Acetonitrile (200 μL) was added to the solution, the resultant solution was sucked under reduced pressure, and an eluate was collected in a 96-well plate. The eluate (10 μL) was added to a 0.1% aqueous formic acid solution/acetonitrile (2/1) solution (290 μL), and the resultant solution was stirred and was then analyzed by LC/MS/MS.
The analysis by LC/MS/MS was carried out under the following conditions.
Measurement device: API-5000 (manufactured by Applied Biosystems/MDS SCIEX) Analysis column: Cadenza CD-C18 (2.0 mm I.D.×100 mm, 3 μm) Flow rate: 0.4 mL/min. Components of mobile phase: a 0.1% aqueous formic acid solution/acetonitrile (0 minute: 65/35, 4.0 minutes: 65/35, 4.1 minutes: 10/90, 5.0 minutes: 10/90, 5.1 minutes: 65/35, 7.0 minutes: 65/35) Scan type: MRM (Multiple Reaction Monitoring)
The nature of data set [3]: Evaluation of solubility in JP 1st fluid and artificial intestinal juice (FaSSIF), HPLC. Type of data set: physicochemical. Conditions: after 24 hours; for solubility at 24 h: 37 °C, thermodynamic from solid. As to the method: The measurement of solubility was carried out under the following conditions.
About 3 mg of each of the compounds of the present invention was weighed in a test tube, then a stirrer and 5 mL of each of an artificial intestinal juice (FaSSIF; Reference Document 1: Pharmaceutical Research, vol. 20, pp. 1674-1680, 2003; Reference Document 2: Biological & Pharmaceutical Bulletin, vol. 34, pp. 401-407, 2011) and JP 1st fluid which had been warmed to 37° C. were added to the test tube, and then the test tube was sealed hermetically. The test tube was installed in a solubility test device (Gilson, Quad-Z 215), and the solution was stirred at 37° C. and 700 rpm. After 0.25, 0.5, 1, 3, 6 and 24 hours, an aliquot of the solution in the test tube was collected. The collected solution was filtrated through a filter, and a filtrate was diluted two-folds with acetonitrile. A diluted solution of the artificial intestinal juice was centrifuged at 3000 rpm for 5 minutes, and a supernatant was used as a sample solution. A diluted solution of the JP 1st fluid was used as is as a sample solution. Solubility was calculated by a high-performance liquid chromatography method.
Column: Waters Xbridge ShieldRP18 (4.6 mm (inner diameter)×50 mm, 3.5 μm) Column temperature: 40° C. Component of mobile phase: 20 mM potassium dihydrogen phosphate (pH 3.0)/acetonitrile (0 minute: 70/30, 5 minutes: 25/75)
Flow rate: 1.0 mL/min Sample rack temperature: 15° C. Sample injection amount: 10 μL Measurement time: 5 minutes Retention time: 2.6 minutes

[4] abbreviates: artificial intestinal juice (FaSSIF), 37° C., 700 rpm.
Where [5] appears, read: artificial intestinal juice (FaSSIF), 37° C.

In brackets after ≈: the same amount, converted by molar mass. Like-named read-outs stand apart in the source and are kept apart here.

Regarding “(3S)-3-[2-(6-Amino-2-fluoropyridin-3-yl)-4-fluoro-1H-imidazol-5-yl]-7-[5-chloro-2-(1H-tetrazol-1-yl)phenyl]-2,3-dihydroindolizin-5(1H)-one-3-hydroxybenzoic acid (1/1) [Example 5]”, in data set [1], the “hygroscopicity (in words)” value is “low hygroscopicity”.

`Nc1ccc(-c2nc(F)c([C@@H]3CCc4cc(-c5cc(Cl)ccc5-n5cnnn5)cc(=O)n43)[nH]2)c(F)n1` [Example 1(11), (3S)-3-[2-(6-amino-2-fluoro-3-pyridinyl)-4-fluoro-1H-imidazol-5-yl]-7-[5-chloro-2-(1H-tetrazol-1-yl)phenyl]-2,3-dihydro-5(1H)-indolizinone dihydrate]: the “oral absorption rate (%)” value in data set [2] (dihydrate) came out at 26%. In addition, the “oral absorption (in words)” value in data set [2] (monkeys, oral) is reported as “poor oral absorption”. For the same compound, the solubility (usually the concentration that dissolves in the medium under given conditions) at 24 h in data set [3] (JP 1st fluid, simulated gastric fluid, JP 1st fluid, 700 rpm, read-out: Solubility, JP 1st fluid) was 41 µg/mL; in data set [3] (JP 1st fluid, simulated gastric fluid, JP 1st fluid, read-out: solubility in the JP 1st fluid) it was 41 µg/mL; in data set [3] (artificial intestinal juice (FaSSIF), fassif, artificial intestinal juice (FaSSIF), 700 rpm, read-out: Solubility, Artificial intestinal juice), 47 µg/mL; in data set [3] (artificial intestinal juice (FaSSIF), fassif, artificial intestinal juice (FaSSIF), read-out: solubility in the artificial intestinal juice), 47 µg/mL. Further, in data set [1], the “hygroscopicity (in words)” value was “high hygroscopicity”.

Take `Nc1ccc(-c2nc(F)c([C@@H]3CCc4cc(-c5cc(Cl)ccc5-n5cnnn5)cc(=O)n43)[nH]2)c(F)n1` [Example 5, (3S)-3-[2-(6-Amino-2-fluoropyridin-3-yl)-4-fluoro-1H-imidazol-5-yl]-7-[5-chloro-2-(1H-tetrazol-1-yl)phenyl]-2,3-dihydroindolizin-5(1H)-one-3-hydroxybenzoic acid (1/1)]: the “oral absorption rate (%)” value in data set [2] was ~100%. In addition, the “Solubility, JP 1st fluid” value in data set [3] (JP 1st fluid, 37° C., 700 rpm) was determined as 75 μg/m. Besides, the “solubility in the JP 1st fluid” value in data set [3] (JP 1st fluid, 37° C.) stood at 75 µg/mL (≈ 148 µM). Besides, the “Solubility, Artificial intestinal juice” value in data set [3] (setting [4]) stood at 60 μg/m. Also, the “solubility in the artificial intestinal juice” value in data set [3] (setting [5]) is 60 µg/mL (≈ 118 µM). Further, the weight change rate entry in data set [1] (DVS, 25° C., relative humidity of 0 to 95%) is recorded as “less than 1%”.

As to “(3S)-3-[2-(6-Amino-2-fluoropyridin-3-yl)-4-fluoro-1H-imidazol-5-yl]-7-[5-chloro-2-(1H-tetrazol-1-yl)phenyl]-2,3-dihydroindolizin-5(1H)-one-nicotinamide (2/1) [Example 4]”, the “oral absorption rate (%)” value in data set [2] amounted to 44%. Moreover, the “Solubility, JP 1st fluid” value in data set [3] (JP 1st fluid, 37° C., 700 rpm) is listed as 77 μg/m. For the same compound, the “Solubility, Artificial intestinal juice” value in data set [3] (setting [4]) was 60 μg/m. In addition, the “solubility in the artificial intestinal juice” value in data set [3] (setting [5]) came out at 60 µg/mL.
